Target: T1, VPAC1 (Homo sapiens, UniProt P32241)
T1 sequence (P32241 31-457): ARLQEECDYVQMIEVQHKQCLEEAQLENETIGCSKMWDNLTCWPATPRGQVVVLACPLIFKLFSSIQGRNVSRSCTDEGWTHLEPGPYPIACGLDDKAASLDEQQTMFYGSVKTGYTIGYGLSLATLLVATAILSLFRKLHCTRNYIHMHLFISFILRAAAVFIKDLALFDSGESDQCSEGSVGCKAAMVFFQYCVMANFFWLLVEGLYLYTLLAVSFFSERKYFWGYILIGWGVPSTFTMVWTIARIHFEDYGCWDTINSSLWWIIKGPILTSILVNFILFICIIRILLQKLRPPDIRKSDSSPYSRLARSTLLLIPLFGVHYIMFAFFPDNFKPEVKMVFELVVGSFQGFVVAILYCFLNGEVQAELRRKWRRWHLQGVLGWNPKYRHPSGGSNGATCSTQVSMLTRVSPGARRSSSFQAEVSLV
Test: Cyclic AMP SPA, cells expressing VPAC1
Format: cell-based

PACAP-27
agonist activity on VPAC1 (in words): potent agonist

— patent US7378494B2, “Pituitary adenylate cyclase activating peptide (PACAP) receptor (VPAC2) agonist peptide” (Bayer HealthCare AG, priority 2002, dated 2008)
